Starred links: 1 amine or outer side, 2 acyl side, 3 side chain; linkers in the order of their positions; H or OH if unused. Positions of bridges follow the written chain, without caps; N, C: chain ends. Non-standard residues stand in square brackets, D forms with d. Residues, ends and D or L forms follow the SMILES beside them. *: point of attachment. hPhe(3-Cl-4-CF3) = N[C@@H](CCc1ccc(C(F)(F)F)c(Cl)c1)C(=O)O; hPhe(3-F,4-CF3) = N[C@@H](CCc1ccc(C(F)(F)F)c(F)c1)C(=O)O; mXylylene = c1cc(C[*:1])cc(C[*:2])c1; oXylylene = c1ccc(C[*:2])c(C[*:1])c1; NMeCha = CN[C@@H](CC1CCCCC1)C(=O)O; cisHyp = O=C(O)[C@@H]1C[C@H](O)CN1; Hyp = O=C(O)[C@@H]1C[C@@H](O)CN1; NMeChg = CN[C@H](C(=O)O)C1CCCCC1; NMeD = CN[C@@H](CC(=O)O)C(=O)O; NMeL = CN[C@@H](CC(C)C)C(=O)O; NMehSer = CN[C@@H](CCO)C(=O)O; Piperidide = C1CCN(*)CC1; X45 = FC(F)Oc1ccc(C*)cc1; Ac5c = NC1(C(=O)O)CCCC1; X30 = COc1cccc(C*)c1; Meb = Cc1ccc(C*)cc1; X27 = Clc1ccccc1C*; Sar = CNCC(=O)O
System: Human pancreatic cancer cell line AsPC-1
Experiment: Measurement of AsPC-1 cell growth inhibition (AsPC-1 CGI)
Format: cell-based
Conditions: 96 h
Method in brief: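 AsPC-1 cells in 15% FBS RPMI-1640 were exposed to test compound for 96 hours at 37° C, with CellTiter-Glo as endpoint.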

## CC[C@H](C)[C@@H]1NC(=O)[C@H](CC(C)C)N(C)C(=O)C[C@@H](C(=O)N2CCCCC2)N(C)C(=O)[C@H](CC(C)C)N(C)C(=O)C2(CCCC2)NC(=O)[C@@H]2C[C@H](OCc3ccccc3Cl)CN2C(=O)[C@H](CCc2ccc(C(F)(F)F)c(F)c2)NC(=O)CN(C)C(=O)[C@H](CC2CCCCC2)N(C)C(=O)CN(C)C(=O)CN(C)C1=O [Compound 2132] ([NMeL]I[Sar][Sar][NMeCha][Sar][hPhe(3-F,4-CF3)][cisHyp](X27)[Ac5c][NMeL][NMeD]-Piperidide; lactam N-11)
  IC50: > 500 nM

## CC[C@H](C)[C@@H]1NC(=O)[C@H](CC(C)C)N(C)C(=O)C[C@@H](C(=O)N2CCCCC2)N(C)C(=O)[C@H](CC(C)C)N(C)C(=O)C2(CCCC2)NC(=O)[C@@H]2C[C@H](OCc3ccc(OC(F)F)cc3)CN2C(=O)[C@H](CCc2ccc(C(F)(F)F)c(F)c2)NC(=O)CN(C)C(=O)[C@H](CC2CCCCC2)N(C)C(=O)CN(C)C(=O)CN(C)C1=O [Compound 2135] ([NMeL]I[Sar][Sar][NMeCha][Sar][hPhe(3-F,4-CF3)][cisHyp](X45)[Ac5c][NMeL][NMeD]-Piperidide; lactam N-11)
  IC50: > 500 nM

## CC[C@H](C)[C@@H]1NC(=O)[C@H](CC(C)C)N(C)C(=O)C[C@@H](C(=O)N2CCCCC2)N(C)C(=O)[C@H](CC(C)C)N(C)C(=O)C2(CCCC2)NC(=O)[C@@H]2C[C@H](OCc3cccc(OC)c3)CN2C(=O)[C@H](CCc2ccc(C(F)(F)F)c(F)c2)NC(=O)CN(C)C(=O)[C@H](CC2CCCCC2)N(C)C(=O)CN(C)C(=O)CN(C)C1=O [Compound 2136] ([NMeL]I[Sar][Sar][NMeCha][Sar][hPhe(3-F,4-CF3)][cisHyp](X30)[Ac5c][NMeL][NMeD]-Piperidide; lactam N-11)
  IC50: > 500 nM

## CC[C@H](C)[C@@H]1NC(=O)[C@H](CC(C)C)N(C)C(=O)C[C@@H](C(=O)N2CCCCC2)N(C)C(=O)[C@H](CC(C)C)N(C)C(=O)C2(CCCC2)NC(=O)[C@@H]2C[C@H](OCc3ccccc3C)CN2C(=O)[C@H](CCc2ccc(C(F)(F)F)c(F)c2)NC(=O)CN(C)C(=O)[C@H](CC2CCCCC2)N(C)C(=O)CN(C)C(=O)CN(C)C1=O [Compound 2137] ([NMeL]I[Sar][Sar][NMeCha][Sar][hPhe(3-F,4-CF3)][cisHyp](oXylylene)[Ac5c][NMeL][NMeD]-Piperidide; lactam N-11)
  IC50: > 500 nM

## CC[C@H](C)[C@@H]1NC(=O)[C@H](CC(C)C)N(C)C(=O)C[C@@H](C(=O)N2CCCCC2)N(C)C(=O)[C@H](CC(C)C)N(C)C(=O)C2(CCCC2)NC(=O)[C@@H]2C[C@@H](OCc3ccccc3Cl)CN2C(=O)[C@H](CCc2ccc(C(F)(F)F)c(F)c2)NC(=O)CN(C)C(=O)[C@H](CC2CCCCC2)N(C)C(=O)CN(C)C(=O)CN(C)C1=O [Compound 2138] ([NMeL]I[Sar][Sar][NMeCha][Sar][hPhe(3-F,4-CF3)][Hyp](X27)[Ac5c][NMeL][NMeD]-Piperidide; lactam N-11)
  IC50: 100 to 500 nM

## CC[C@H](C)[C@@H]1NC(=O)[C@H](CC(C)C)N(C)C(=O)C[C@@H](C(=O)N2CCCCC2)N(C)C(=O)[C@H](CC(C)C)N(C)C(=O)C2(CCCC2)NC(=O)[C@@H]2C[C@@H](OCc3ccccc3C)CN2C(=O)[C@H](CCc2ccc(C(F)(F)F)c(F)c2)NC(=O)CN(C)C(=O)[C@H](CC2CCCCC2)N(C)C(=O)CN(C)C(=O)CN(C)C1=O [Compound 2139] ([NMeL]I[Sar][Sar][NMeCha][Sar][hPhe(3-F,4-CF3)][Hyp](oXylylene)[Ac5c][NMeL][NMeD]-Piperidide; lactam N-11)
  IC50: 100 to 500 nM

## CC[C@H](C)[C@@H]1NC(=O)[C@H](CC(C)C)N(C)C(=O)C[C@@H](C(=O)N2CCCCC2)N(C)C(=O)[C@H](CC(C)C)N(C)C(=O)C2(CCCC2)NC(=O)[C@@H]2C[C@H](OCc3ccc(C)cc3)CN2C(=O)[C@H](CCc2ccc(C(F)(F)F)c(F)c2)NC(=O)CN(C)C(=O)[C@H](CC2CCCCC2)N(C)C(=O)CN(C)C(=O)CN(C)C1=O [Compound 2140] ([NMeL]I[Sar][Sar][NMeCha][Sar][hPhe(3-F,4-CF3)][cisHyp](Meb)[Ac5c][NMeL][NMeD]-Piperidide; lactam N-11)
  IC50: > 500 nM

## CC[C@H](C)[C@@H]1NC(=O)[C@H](CC(C)C)N(C)C(=O)C[C@@H](C(=O)N2CCCCC2)N(C)C(=O)[C@H](CC(C)C)N(C)C(=O)C2(CCCC2)NC(=O)[C@@H]2C[C@H](OCc3cccc(C)c3)CN2C(=O)[C@H](CCc2ccc(C(F)(F)F)c(F)c2)NC(=O)CN(C)C(=O)[C@H](CC2CCCCC2)N(C)C(=O)CN(C)C(=O)CN(C)C1=O [Compound 2141] ([NMeL]I[Sar][Sar][NMeCha][Sar][hPhe(3-F,4-CF3)][cisHyp](mXylylene)[Ac5c][NMeL][NMeD]-Piperidide; lactam N-11)
  IC50: > 500 nM

## CC[C@H](C)[C@@H]1NC(=O)[C@H](CC(C)C)N(C)C(=O)C[C@@H](C(=O)N2CCCCC2)N(C)C(=O)[C@H](C2CCCCC2)N(C)C(=O)C2(CCCC2)NC(=O)[C@H](CCOC)N(C)C(=O)[C@H](CCc2ccc(C(F)(F)F)c(Cl)c2)NC(=O)CN(C)C(=O)[C@H](CC2CCCCC2)N(C)C(=O)CN(C)C(=O)CN(C)C1=O [Compound 2168] ([NMeL]I[Sar][Sar][NMeCha][Sar][hPhe(3-Cl-4-CF3)][NMehSer](Me)[Ac5c][NMeChg][NMeD]-Piperidide; lactam N-11)
  IC50: 100 to 500 nM

Source: US12371454B2, “Cyclic peptide compound having Kras inhibitory action” (priority 2019, dated 2025)
